From patent US10633338B2, “Binding Function 3 (BF3) site compounds as therapeutics and methods for their use” (THE UNIVERSITY OF BRITISH COLUMBIA, priority 2014, dated 2020)

molecular target: T1, androgen receptor (AR) (Homo sapiens, UniProt P10275, T878A); test: eGFP cellular AR transcription assay; format: cell-based; conditions: LN-ARR2PB-eGFP LNCaP cells, 0.1 nM R1881, 3 days, 0-100 μM compound; read-out: IC50 (eGFP)
T1 construct: stably transfected eGFP-expressing LNCaP human prostate cancer cells (LN-ARR2PB-eGFP) containing an androgen responsive probasin-derived promoter; endogenous in cells; host or cells: LNCaP (LN-ARR2PB-eGFP)
T1 sequence (P10275 1-920 T878A): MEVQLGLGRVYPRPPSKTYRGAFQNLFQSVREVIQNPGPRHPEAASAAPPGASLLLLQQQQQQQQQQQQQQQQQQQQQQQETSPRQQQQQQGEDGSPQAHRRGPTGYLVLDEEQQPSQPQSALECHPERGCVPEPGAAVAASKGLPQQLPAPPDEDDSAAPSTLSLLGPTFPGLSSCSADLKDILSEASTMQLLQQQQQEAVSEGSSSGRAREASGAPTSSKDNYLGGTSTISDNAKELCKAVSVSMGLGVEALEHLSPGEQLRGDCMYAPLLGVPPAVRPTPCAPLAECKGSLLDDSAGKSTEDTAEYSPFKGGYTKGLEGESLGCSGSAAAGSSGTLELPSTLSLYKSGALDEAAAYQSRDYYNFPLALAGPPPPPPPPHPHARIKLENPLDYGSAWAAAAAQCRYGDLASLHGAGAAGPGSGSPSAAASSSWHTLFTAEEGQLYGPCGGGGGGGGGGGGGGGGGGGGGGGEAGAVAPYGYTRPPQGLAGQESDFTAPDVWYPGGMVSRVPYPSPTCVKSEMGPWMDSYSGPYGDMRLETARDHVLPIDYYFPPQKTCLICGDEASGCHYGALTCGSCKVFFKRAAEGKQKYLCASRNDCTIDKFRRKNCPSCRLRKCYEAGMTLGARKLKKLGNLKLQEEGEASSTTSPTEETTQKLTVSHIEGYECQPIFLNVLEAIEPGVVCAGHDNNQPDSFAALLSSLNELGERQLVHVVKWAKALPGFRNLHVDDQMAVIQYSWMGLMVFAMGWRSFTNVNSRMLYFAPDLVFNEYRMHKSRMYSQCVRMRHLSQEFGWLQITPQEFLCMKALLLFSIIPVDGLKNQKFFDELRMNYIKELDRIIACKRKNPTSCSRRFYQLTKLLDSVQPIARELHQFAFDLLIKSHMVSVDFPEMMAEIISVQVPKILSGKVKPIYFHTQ
Protocol: After 5 days, the cells were plated into a 96-well plate (35,000 cells/well) with 0.1 nM of the synthetic androgen R1881 and increasing concentrations (0-100 μM) of compound.
After 5 days, the cells were plated into a 96-well plate (35,000 cells/well) with 0.1 nM R1881 and increasing concentrations (0-100 μM) of compound.
In this assay, the expression of eGFP is under the control of an androgen responsive probasin-derived promoter and can quantify AR transcriptional activity.

SMILES	IC50 [µM]
Brc1ccc2[nH]cc(-c3ccc4ccccc4n3)c2c1 [13 683]	2.6
Fc1cccc2c(-c3ccc4ccccc4n3)c[nH]c12 [13 569]	1.6
c1cncc(-c2c[nH]c3cnccc23)c1 [13 581]	4.9
CC1(C)c2cc(Br)ccc2NC1c1c[nH]c2cc(O)ccc12 (stereo not drawn) [13 542]	5.7
CC1(C)c2ccccc2NC1c1c[nH]c2ccc(N)cc12 (stereo not drawn) [13 538]	7.7
c1ccc(COc2ccc3c(C4Nc5ccccc5C45CCCCC5)c[nH]c3c2)cc1 (stereo not drawn) [13 550]	11.8
Cc1[nH]c2ccccc2c1-c1ccc2ccccc2n1 [13 570]	20
CC1(C)c2ccccc2NC1c1c[nH]c2ncccc12 (stereo not drawn) [13 560]	2.3
c1ccc2c(c1)N=C(c1c[nH]c3ncccc13)C21CCCCC1 [13 559]	6.6
Cn1cc(-c2ccc3ccccc3n2)c2ccccc21 [13 571]	1.1

same assay, conditions: LN-ARR2PBeGFP LNCaP cells, 0.1 nM R1881, 3 days incubation

SMILES	eGFP IC50
CC1(C)c2ccccc2NC1c1c[nH]c2c(F)cccc12 (stereo not drawn) [Compound 13555]	Inactive
CC1(C)c2ccccc2NC1c1c[nH]c2c(C(=O)O)cccc12 (stereo not drawn) [Compound 13557]	Inactive

same assay, conditions: LN-ARR2PBeGFP LNCaP cells, 0.1 nM R1881, 3 days incubation; read-out: eGFP IC50

SMILES	IC50 [µM]
Fc1cc(F)c2[nH]cc(-c3ccc4c(Cl)cccc4n3)c2c1F [Compound 13753]	0.16
c1ccc2c(c1)CCN2c1nc2ccccc2o1 [Compound 13220]	0.7
CC1(C)c2cc(Br)ccc2NC1c1c[nH]c2cc(O)ccc12 (stereo not drawn) [Compound 13542]	5.7
Clc1ccc(Cl)c2c(-c3ccc4ccccc4n3)c[nH]c12 [Compound 13640]	12.7
CNC(=O)c1cccc2nc(-c3c[nH]c4c(N5CCOCC5)c(F)c(F)cc34)ccc12 [Compound 13775]	3.7
Brc1ccc2c(c1)NC(c1c[nH]c3ccc(Br)cc13)C2 (stereo not drawn) [Compound 13502]	4.1
N#Cc1cccc2c(-c3ccc4ccc(F)cc4n3)c[nH]c12 [Compound 13786]	0.013
Cc1ccc(F)c2c(-c3ccc4ccccc4n3)c[nH]c12 [Compound 13650]	1.63
O=C(Nc1n[nH]c2ccc(Br)cc12)c1cc(Br)ccc1O [Compound 9026]	11.7
c1ccc2[nH]c(-c3n[nH]c4ccccc34)nc2c1 [Compound 13036]	1.6
Cn1c(-c2c[nH]c3ccccc23)cc2ccccc21 [Compound 13505]	3.4
c1ccc(COc2ccc3c(-c4ccc5ccccc5n4)c[nH]c3c2)cc1 [Compound 13589]	5.3
Cn1cc(C2Nc3ccccc3C2(C)C)c2ccccc21 (stereo not drawn) [Compound 13516]	3.6
Fc1cccc2c(-c3ccc4ccccc4n3)c[nH]c12 [Compound 13569]	1.6
Clc1ccc(N/N=C2\CCc3ccccc32)cc1Cl [Compound 13215]	2
CC1(C)c2ccccc2NC1c1c[nH]c2cnccc12 (stereo not drawn) [Compound 13561]	10.7

SMILES	IC50 [µM]
CC1(C)c2cc(Br)ccc2NC1c1c[nH]c2ccc(Br)cc12 (stereo not drawn) [Compound 13512]	6
Cc1cccc2c(-c3ccc4c(-c5cncs5)cccc4n3)c[nH]c12 [Compound 13782]	0.11
Cc1ccc(/N=N/c2c[nH]c3ccccc23)cc1 [Compound 13257]	4.2
Cn1cc(-c2ccc3ccccc3n2)c2ccccc21 [Compound 13571]	1.1
CC1(C)c2ccccc2NC1c1c[nH]c2cc(OCc3ccccc3)ccc12 (stereo not drawn) [Compound 13544]	11.4
O=C(Nc1nc2ccc(Br)cc2s1)c1ccc(Br)cc1O [Compound 9040]	39.1
Cc1cccc2c(-c3ccc4cc(F)ccc4n3)c[nH]c12 [Compound 13573]	0.56
Cn1cc(CCc2ccncc2)c2ccccc21 [Compound 13202]	2.5
Fc1cc2[nH]cc(-c3ccc4cccc(F)c4n3)c2cc1F [Compound 13651]	0.404
N#Cc1cn(CCCOc2ccccc2Cl)c2ccccc12 [Compound 13232]	10
Brc1ccc2cc(CCc3cc4ccc(Br)cc4[nH]3)[nH]c2c1 [Compound 9043]	2.5
C(=C(c1ccccc1)c1ccccc1)c1c[nH]c2ccccc12 [Compound 13250]	4.7
c1ccc(-c2ccccc2/N=N/c2c[nH]c3ccccc23)cc1 [Compound 13258]	6.8
Cc1ccc2c(-c3ccc4ccccc4n3)c[nH]c2c1 [Compound 13574]	2.57
Cc1cccc2c1CCN2c1nc2ccccc2o1 [Compound 13260]	2.7

tested on: PSA; test: Prostate Surface Antigen (PSA) assay, PSA excreted into the media; format: cell-based, human; conditions: Homo sapiens, 72 h, PSA excreted into media, same plates as eGFP assay, 3 days incubation; read-out: PSA IC50
Protocol: The evaluation of PSA excreted into the media was performed in parallel to the eGFP assay using the same plates (see above description). After the cells were incubated for 3 days 150 μl of the media was taken from each well, and added to 150 μl of PBS.

SMILES	IC50 [µM]
Fc1cc(F)c2[nH]cc(-c3ccc4c(Cl)cccc4n3)c2c1F [Compound 13753]	0.098
Cc1cccc2c(-c3ccc4cccc(Br)c4n3)c[nH]c12 [Compound 13677]	0.11
Cc1cc(Cl)c2[nH]cc(-c3ccc4ccccc4n3)c2c1 [Compound 13625]	1.23
Fc1cc(Cl)cc2c(-c3ccc4ccccc4n3)c[nH]c12 [Compound 13641]	0.403
Cc1cccc2c(-c3cnc4ccccc4c3)c[nH]c12 [Compound 13643]	0.156
Cc1c(F)ccc2c(-c3ccc4ccccc4n3)c[nH]c12 [Compound 13607]	0.087
Cc1cccc2c(-c3ccc4ccc(F)cc4n3)c[nH]c12 [Compound 13611]	0.121
Fc1ccc2c(-c3ccc4ccccc4n3)c[nH]c2c1Cl [Compound 13642]	0.025
Fc1ccc2c(-c3ccc4ccccc4n3)c[nH]c2c1F [Compound 13618]	0.13
Cc1cccc2c(-c3ccc4c(C(F)(F)F)cccc4n3)c[nH]c12 [Compound 13602]	0.182
Cc1cccc2c(-c3ccc4cccc(F)c4n3)c[nH]c12 [Compound 13692]	0.082
Cc1cc(F)cc2c(-c3ccc4ccccc4n3)c[nH]c12 [Compound 13601]	0.165
Cc1cccc2c(-c3ccc4ccccc4n3)c[nH]c12 [Compound 13566]	0.011
CNC(=O)c1cccc2nc(-c3c[nH]c4c(C)cccc34)ccc12 [Compound 13597]	0.132
Fc1cc(F)c2[nH]cc(-c3ccc4ccccc4n3)c2c1 [Compound 13610]	0.013
Fc1cc(Cl)c2[nH]cc(-c3ccc4ccccc4n3)c2c1 [Compound 13624]	0.042
Clc1cccc2c(-c3ccc4ccccc4n3)c[nH]c12 [Compound 13622]	0.075
Cc1ccc(/N=C/c2c[nH]c3ccccc23)cc1 [Compound 13247]	0.43
Cc1cccc2c(-c3ccc4cccc(Cl)c4n3)c[nH]c12 [Compound 13593]	0.13
Clc1cc(Cl)c2[nH]cc(-c3ccc4ccccc4n3)c2c1 [Compound 13627]	1.16
Fc1cc2c(-c3ccc4c(C(F)(F)F)cccc4n3)c[nH]c2c(F)c1F [Compound 13761]	0.383
Cc1cccc2c(-c3ccc4ccc(Cl)cc4n3)c[nH]c12 [Compound 13606]	1.43

same assay, conditions: Homo sapiens, 72 h, read-out: IC50 (PSA)

SMILES	IC50 [µM]
Cc1cccc2c(-c3ccc4ccccc4n3)c[nH]c12 [13 566]	0.056

same assay, conditions: Homo sapiens, 72 h, same plates as eGFP assay, media after 3 days; read-out: IC50 (PSA)

SMILES	IC50 [µM]
Brc1ccc2[nH]cc(-c3ccc4ccccc4n3)c2c1 [13 683]	1.91
Cc1cccc2c(-c3ccc4cccc(Br)c4n3)c[nH]c12 [13 677]	0.11

same assay, conditions: PSA excreted into media, same plates as eGFP assay, 3 days incubation

SMILES	PSA IC50
c1ccc(-c2nc3ccccc3[nH]2)cc1 [Compound 13686]	Inactive

same assay, conditions: PSA excreted into media, same plates as eGFP assay, 3 days incubation; read-out: PSA IC50

SMILES	IC50 [µM]
CNC(=O)c1cccc2nc(-c3c[nH]c4c(F)c(F)c(F)cc34)ccc12 [Compound 13754]	0.051
Cc1cccc2c(-c3cnc4ccccc4c3)c[nH]c12 [Compound 13654]	0.16

same assay, conditions: same plates as eGFP assay, media after 3 days

SMILES	IC50 (PSA)
c1ccc(-c2nc3ccccc3[nH]2)cc1 [13 686]	IC50 (PSA) = Inactive
